EP4227307A1 (Genzyme Corporation, priority 2022, dated 2023)
pIC50: −log10 of the molar value. Counter-ions that a name gives are not always drawn.

Biological target: T1, human recombinant 6His-Nterm SHP2 full-length (Thr2-Arg593) (Homo sapiens, UniProt Q06124)
T1 construct: 6His-Nterm SHP2 full-length (Thr2-Arg593, R&D system); 6His (N); purchased R&D system
T1 sequence (Q06124 2-593): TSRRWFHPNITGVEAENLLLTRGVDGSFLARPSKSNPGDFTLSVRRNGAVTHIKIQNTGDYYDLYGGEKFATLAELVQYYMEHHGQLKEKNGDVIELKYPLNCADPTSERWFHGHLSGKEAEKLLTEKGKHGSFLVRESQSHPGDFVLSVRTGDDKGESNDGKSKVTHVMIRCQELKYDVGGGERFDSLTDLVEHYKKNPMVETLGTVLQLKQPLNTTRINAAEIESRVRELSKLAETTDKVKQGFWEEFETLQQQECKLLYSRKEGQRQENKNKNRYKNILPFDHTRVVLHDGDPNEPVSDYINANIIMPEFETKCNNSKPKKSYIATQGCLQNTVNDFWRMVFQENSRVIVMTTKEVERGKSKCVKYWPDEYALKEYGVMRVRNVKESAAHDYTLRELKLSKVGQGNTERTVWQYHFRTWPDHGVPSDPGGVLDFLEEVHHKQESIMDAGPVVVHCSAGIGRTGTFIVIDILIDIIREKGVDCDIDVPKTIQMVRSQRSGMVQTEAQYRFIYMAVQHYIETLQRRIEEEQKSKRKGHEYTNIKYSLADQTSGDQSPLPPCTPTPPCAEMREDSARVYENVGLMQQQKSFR
Assay: SHP2 Phosphatase Assay (DiFMUP fluorescence)
Type: biochemical
Conditions: SHP2 0.2 nM pre-incubated with 100 nM bi-phosphorylated activating peptide; compound 1000-0.05 nM, 30 min pre-incubation; DiFMUP 20 µM, 45 min, room temperature; 10-concentration dose-response
Description: Inhibition of SHP2 phosphatase activity was evaluated using human recombinant 6His-Nterm SHP2 full-length (Thr2-Arg593, R&D system), NsCs bi-phosphorylated activating peptide (NH2-LN(pY)AQLWHA(PEG8)LTI(pY)ATIRRF-Amide.acetate, Thermofischer Scientific) and DiFMUP as surrogate phosphatase substrate (Molecular Probes). All reactions were performed at room temperature in 384-well black polystyrene non-binding plate (Corning) with the assay buffer (50 mM HEPES-NaOH pH 7.2, 100 mM NaCl, 0.5 mM EDTA, 0.001% Brij35 including 0.02% BSA and 1 mM DTT added extemporaneously). SHP2 was pre-incubated at least 10 min with the activating peptide (0.2 nM and 100 nM, respectively). 10 µL of this mixture was added to the assay plate, that already contained 15 nL of the compound (1000-0.05 nM). After 30 min pre-incubation, the enzymatic reaction was initiated by the addition of 5 µL DiFMUP in assay buffer without BSA (20 µM). The reaction was stopped by the addition of 15 µL sodium pervanadate solution (100 µM) after 45 min incubation. The fluorescence signal was measured at excitation and emission wavelengths of 350 nm and 450 nm, respectively, using a Pherastar instrument (BMG-LabTech). Percentage of inhibition […] were calculated from the fluorescence signal at 450 nm of the positive and negative control using the following formula: I% = ((signal Max−signal Sample)/(signal Max−signal Min control)) × 100 [formula]
Positive control (Max): corresponds to the maximum fluorescence signal obtained in the presence of 15 nL DMSO replacing the inhibitor in the pre-incubation step.
Negative control (Min): corresponds to the minimum signal obtained in the presence of 1 µM of RMC-4550, the structure of which is shown below: [drawing 464]
The IC50 were then calculated from a dose-response curve of 10 concentrations of tested compound using the 4-parameter logistic model: I% = A + (C)/(1 + exp(−B×log(X)−M)) [formula]
The parameters A and (A+C) are the lower and upper limits, B is the slope of the curve at the inflexion point, M parameter is the logarithm of the abscissa at the inflexion point, and X is the concentration of compound.

Row | SMILES | pIC50
1 | Cc1nc(N2CCC3(CC2)Cc2ncccc2[C@H]3N)c2ccnn2c1-c1ccccc1Cl [Compound 22, (5S)-1'-[7-(2-chlorophenyl)-6-methyl-pyrazolo[1,5-a]pyrazin-4-yl]spiro[5,7-dihydrocyclopenta[b]pyridine-6,4'-piperidine]-5-amine] | 7.96
2 | COc1cnc2c(c1)[C@@H](N)C1(CCN(c3nc(C)c(-c4ccnc(C)c4Cl)n4nccc34)CC1)C2 [Compound 23, (5S)-1'-[7-(3-chloro-2-methyl-4-pyridyl)-6-methyl-pyrazolo[1,5-a]pyrazin-4-yl]-3-methoxy-spiro[5,7-dihydrocyclopenta[b]pyridine-6,4'-piperidine]-5-amine] | 8.00
3 | COc1cnc2c(c1)[C@@H](N)C1(CCN(c3nc(C)c(-c4cccc(F)c4F)n4nccc34)CC1)C2 [Compound 24, (5S)-1'-[7-(2,3-difluorophenyl)-6-methyl-pyrazolo[1,5-a]pyrazin-4-yl]-3-methoxy-spiro[5,7-dihydrocyclopenta[b]pyridine-6,4'-piperidine]-5-amine] | 7.96
4 | Cc1nccc(-c2c(C)nc(N3CCC4(CC3)Cc3ccccc3[C@H]4N)c3ccnn23)c1Cl [Compound 25, (S)-1'-(7-(3-chloro-2-methylpyridin-4-yl)-6-methylpyrazolo[1,5-a]pyrazin-4-yl)-1,3-dihydrospiro[indene-2,4'-piperidin]-1-amine hydrochloride] | 8.22
5 | N[C@@H]1c2cccnc2CC12CCN(c1ncc(-c3cccc(F)c3F)n3nccc13)CC2 [Compound 26, (5S)-1'-[7-(2,3-difluorophenyl)pyrazolo[1,5-a]pyrazin-4-yl]spiro[5,7-dihydrocyclopenta[b]pyridine-6,4'-piperidine] -5-amine formate] | 7.64
6 | Cc1nc(N2CCC3(CC2)Cc2ncccc2[C@H]3N)c2ccnn2c1-c1ccc2nccnc2c1 [Compound 27, (5S)-1'-(6-methyl-7-quinoxalin-6-yl-pyrazolo[1,5-a]pyrazin-4-yl)spiro[5,7-dihydrocyclopenta[b]pyridine-6,4'-piperidine]-5-amine hydrochloride] | 7.80
7 | Cc1nccc(-c2c(C)nc(N3CCC4(CC3)Cc3ncc(F)cc3[C@H]4N)c3ccnn23)c1Cl [Compound 28, (5S)-1'-[7-(3-chloro-2-methyl-4-pyridyl)-6-methyl-pyrazolo[1,5-a]pyrazin-4-yl]-3-fluoro-spiro[5,7-dihydrocyclopenta[b]pyridine-6,4'-piperidine] -5-amine] | 7.82
8 | Cc1nc(N2CCC3(CC2)Cc2ncccc2[C@H]3N)c2ccnn2c1-c1ccnn1C [Compound 29, (5S)-1'-[6-methyl-7-(2-methylpyrazol-3-yl)pyrazolo[1,5-a]pyrazin-4-yl]spiro[5,7-dihydrocyclopenta[b]pyridine-6,4'-piperidine]-5-amine hydrochloride] | 7.42
9 | Cc1nc(N2CCC3(CC2)Cc2ncccc2[C@H]3N)c2ccnn2c1-c1ccc2ncccc2c1F [Compound 30, (5S)-1'-[7-(5-fluoro-6-quinolyl)-6-methyl-pyrazolo [1 ,5-a]pyrazin-4-yl]spiro[5,7-dihydrocyclopenta[b]pyridine-6,4'-piperidine] -5-amine formate] | 7.77
10 | COc1ccc(F)c(-c2c(C)nc(N3CCC4(CC3)Cc3ncccc3[C@H]4N)c3ccnn23)c1 [Compound 31, (5S)-1'-[7-(2-fluoro-5-methoxy-phenyl)-6-methyl-pyrazolo[1,5-a]pyrazin-4-yl]spiro[5,7-dihydrocyclopenta[b]pyridine-6,4'-piperidine]-5-amine] | 7.89
11 | COc1cccc(-c2c(C)nc(N3CCC4(CC3)Cc3ncccc3[C@H]4N)c3ccnn23)c1 [Compound 32, (5S)-1'-[7-(3-methoxyphenyl)-6-methyl-pyrazolo[1,5-a]pyrazin-4-yl]spiro[5,7-dihydrocyclopenta[b]pyridine-6,4'-piperidine]-5-amine] | 8.22
12 | Cc1nn(C)c(C)c1-c1c(C)nc(N2CCC3(CC2)Cc2ncccc2[C@H]3N)c2ccnn12 [Compound 33, (5S)-1'-[6-methyl-7-(1,3,5-trimethylpyrazol-4-yl)pyrazolo[1,5-a]pyrazin-4-yl]spiro[5,7-dihydrocyclopenta[b]pyridine-6,4'-piperidine]-5-amine] | < 6.00
13 | Cc1nc(N2CCC3(CC2)Cc2ncccc2[C@H]3N)c2ccnn2c1-c1ccc2c(c1F)OCCO2 [Compound 34, (5S)-1'-[7-(5-fluoro-2,3-dihydro-1,4-benzodioxin-6-yl)-6-methyl-pyrazolo[1,5-a]pyrazin-4-yl]spiro[5,7-dihydrocyclopenta[b]pyridine-6,4'-piperidine]-5-amine] | 8.52
14 | Cc1nc(N2CCC3(CC2)Cc2c(ccnc2CO)[C@H]3N)c2ccnn2c1-c1ccccc1F [Compound 35, [(5S)-5-amino-1'-[7-(2-fluorophenyl)-6-methyl-pyrazolo[1,5-a]pyrazin-4-yl]spiro[5,7-dihydrocyclopenta[c]pyridine-6,4'-piperidine]-1-yl]methanol] | 8.10
15 | Cc1nc(N2CCC3(CC2)Cc2ncccc2[C@H]3N)c2cc(C(F)F)nn2c1-c1cnn(C)c1C [Compound 36, (5S)-1'-[2-(difluoromethyl)-7-(1,5-dimethylpyrazol-4-yl)-6-methyl-pyrazolo[1,5-a]pyrazin-4-yl]spiro[5,7-dihydrocyclopenta[b]pyridine-6,4'-piperidine]-5-amine] | 6.64
16 | Cc1nc(N2CCC3(CC2)Cc2ncccc2[C@H]3N)c2cc(CO)nn2c1-c1cccc(F)c1F [Compound 37, [4-[(5S)-5-aminospiro[5,7-dihydrocyclopenta[b]pyridine-6,4'-piperidine]-1'-yl]-7-(2,3-difluorophenyl)-6-methyl-pyrazolo[1,5-a]pyrazin-2-yl]methanol] | 8.05
17 | Cc1nc(N2CCC3(CC2)Cc2ncccc2[C@H]3N)c2ccnn2c1-c1sccc1Cl [Compound 38, (5S)-1'-[7-(3-chloro-2-thienyl)-6-methyl-pyrazolo[1,5-a]pyrazin-4-yl]spiro[5,7-dihydrocyclopenta[b]pyridine-6,4'-piperidine]-5-amine] | 7.92
18 | Cc1nc(N2CCC3(CC2)Cc2ncccc2[C@H]3N)c2ccnn2c1-c1ccccc1 [Compound 39, (5S)-1'-(6-methyl-7-phenyl-pyrazolo[1,5-a]pyrazin-4-yl)spiro[5,7-dihydrocyclopenta[b]pyridine-6,4'-piperidine]-5-amine] | 8.30
19 | Cc1nc(N2CCC3(CC2)Cc2ncccc2[C@H]3N)c2ccnn2c1-c1ccnc(C2CC2)c1Cl [Compound 40, (5S)-1'-[7-(3-chloro-2-cyclopropyl-4-pyridyl)-6-methyl-pyrazolo[1,5-a]pyrazin-4-yl]spiro[5,7-dihydrocyclopenta[b]pyridine-6,4'-piperidine]-5-amine] | 8.00
20 | Cc1nc(N2CCC3(CC2)Cc2ncccc2[C@H]3N)c2ccnn2c1-c1ccnc(C(F)(F)F)c1F [Compound 41, (5S)-1'-[7-[3-fluoro-2-(trifluoromethyl)-4-pyridyl]-6-methyl-pyrazolo[1,5-a]pyrazin-4-yl]spiro[5,7-dihydrocyclopenta[b]pyridine-6,4'-piperidine]-5-amine] | 7.82
21 | CCc1nccc(-c2c(C)nc(N3CCC4(CC3)Cc3ncccc3[C@H]4N)c3ccnn23)c1Cl [Compound 42, (5S)-1'-[7-(3chloro-2-ethyl-4-pyridyl)-6-methyl-pyrazolo[1,5-a]pyrazin-4-yl]spiro[5,7-dihydrocyclopenta[b]pyridine-6,4'-piperidine]-5-amine] | 8.52
